# What was measured:
# ALK5 [1] = target: T1, ALK5 (Rattus norvegicus, UniProt P80204); experiment: Autoradiography on control, MCT- and SuHx-exposed rat lung sections; format: binding; details: for Binding to MCT-exposed lungs compared with control lungs: MCT-exposed lungs (Wistar) vs healthy lungs normalized to 100%; for Binding to MCT-exposed lungs compared with control lungs / Binding to SuHx-exposed lungs compared with control lungs: n = 3; for Binding to SuHx-exposed lungs compared with control lungs: SuHx-exposed lungs (S.D.) vs healthy lungs normalized to 100%
# T1 sequence (P80204 30-501): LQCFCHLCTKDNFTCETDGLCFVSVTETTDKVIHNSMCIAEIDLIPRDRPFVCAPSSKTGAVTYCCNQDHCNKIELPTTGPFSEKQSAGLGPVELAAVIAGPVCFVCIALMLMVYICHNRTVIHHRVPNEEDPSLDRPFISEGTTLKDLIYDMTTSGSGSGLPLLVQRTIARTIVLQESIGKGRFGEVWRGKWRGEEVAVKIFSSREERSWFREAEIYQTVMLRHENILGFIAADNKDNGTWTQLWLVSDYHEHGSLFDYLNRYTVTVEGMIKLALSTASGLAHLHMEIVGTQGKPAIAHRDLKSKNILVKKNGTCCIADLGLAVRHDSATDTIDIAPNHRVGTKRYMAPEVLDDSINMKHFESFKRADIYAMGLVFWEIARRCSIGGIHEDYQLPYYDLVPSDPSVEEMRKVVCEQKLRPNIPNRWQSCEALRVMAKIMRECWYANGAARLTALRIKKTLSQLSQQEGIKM
# Experimental: Sections of 10 μm thickness were cut using a Cryostat ([…]) and thaw mounted on Thermo Scientific Superfrost plus adhesion slides. The sections were stored at- 20 °C until further handling. Tissue sections were defrosted, washed three times for 5 min with 5 mM Tris HCl buffer, pH 7.4 and dried in a cold stream of air. […] Sigma-Aldrich, Zwijndrecht, The Netherlands). The sections were washed in cold 5 mM Tris HCl buffer, pH 7.4, (three times 1 min) followed by a dip in ice cold water. […] Screens were developed on a Typhoon FLA 7000 phosphor imager (GE Healthcare lifescience, Buckinghamshire, UK) and analysed using Image Quant TL v8.1.0.0 (GE Healthcare lifescience, Buckinghamshire, UK). […] Statistical analysis was performed using Graphpad PRISM (v 5.02, Graphpad Software Inc). Tracer uptake in the tissue was compared with tracer uptake co-administered with SB431542 by using a one-tailed unpaired t-test. Differences were considered significant if p < 0.05. Adjacent tissue sections were used for autoradiography experiments.
# [2] = Ex vivo biodistribution study in healthy male Wistar rats; set-up: species or system rat; details: i.v., ± SEM; for Retention in healthy lung tissue: 15 min p.i., n = 4
# Experimental: A biodistribution study and metabolite analysis was carried out in healthy male Wistar rats (214 ± 15 g, Charles River, Germany). Rats were injected with 21 ± 15 MBq of [^11C]LR111 in the tail vein under isoflurane anaesthesia (2% in O2 at 1 L min^−1). Rats were sacrificed under similar isoflurane anaesthesia by exsanguination and dissected at 5, 15, 30 and 60 min post injection (p.i.) (n = 4 per time point). Rats were injected with 14 ± 5 MBq [^18F]EW-7197 in the tail vein under isoflurane anaesthesia (2% in O2 at 1 L min^−1). Rats were sacrificed under similar isoflurane anaesthesia by exsanguination and dissected at 5, 15, 30 and 45 min post injection (p.i.) (n = 4 per time point). Blood, heart, lungs, liver, kidneys, urine, bone and brain were collected, weighed and counted for radioactivity (Wallac 1210 Compugamma, PerkinElmer, Waltham, MA, USA). Biodistribution data were expressed as percentage injected dose per gram tissue (%ID·g^−1) ± standard error of the mean (SEM). Blood at 15 min and 60 min p.i. ([^11C]LR111) and blood at 15 min and 45 min p.i. ([^18F]EW-7197), withdrawn from the abdominal aorta, (~ 7 mL) was collected in a heparin coated tube and centrifuged at 5000 rpm to separate plasma from blood cells (Hettich universal 32, Andreas Hettich GmbH & Co. KG, Tuttlingen, Germany). […] Fractions were counted for radioactivity (Wallac 1210 Compugamma, PerkinElmer, Waltham, MA, USA). The percentage of intact tracer in the non-polar fraction was determined by online HPLC analysis on a Dionex (Sunnyvale, CA, USA) UltiMate 3000 HPLC equipment with Chromeleon software (version 6.8) equipped with a Gemini C18 column (5 μm, 10 × 250 mm, Phenomenex, Torrance, CA, USA) with a mixture of MeCN (A) and 0.1% TFA in water (B) as eluent according to the following scheme 0 min: 90% B; 12 min 15% B; 8 min 90% B at 3.5 mL.min^−1 [^11C]LR111 Rt = 10.7 min and [^18F]EW-7197 Rt = 9.2 min. Results were expressed as percentage of intact tracer, polar metabolites and non-polar metabolites ± SEM (n = 4 for each time point).
# [3] = Ex vivo metabolite analysis in rat blood plasma (SPE/HPLC); details: for Intact tracer: rat blood plasma, ± SEM, n = 4; for In vivo metabolic stability in rats: in words
# Experimental: A biodistribution study and metabolite analysis was carried out in healthy male Wistar rats (214 ± 15 g, Charles River, Germany). Rats were injected with 21 ± 15 MBq of [^11C]LR111 in the tail vein under isoflurane anaesthesia (2% in O2 at 1 L min^−1). Rats were sacrificed under similar isoflurane anaesthesia by exsanguination and dissected at 5, 15, 30 and 60 min post injection (p.i.) (n = 4 per time point). Rats were injected with 14 ± 5 MBq [^18F]EW-7197 in the tail vein under isoflurane anaesthesia (2% in O2 at 1 L min^−1). Rats were sacrificed under similar isoflurane anaesthesia by exsanguination and dissected at 5, 15, 30 and 45 min post injection (p.i.) (n = 4 per time point). Blood, heart, lungs, liver, kidneys, urine, bone and brain were collected, weighed and counted for radioactivity (Wallac 1210 Compugamma, PerkinElmer, Waltham, MA, USA). Biodistribution data were expressed as percentage injected dose per gram tissue (%ID·g^−1) ± standard error of the mean (SEM). Blood at 15 min and 60 min p.i. ([^11C]LR111) and blood at 15 min and 45 min p.i. ([^18F]EW-7197), withdrawn from the abdominal aorta, (~ 7 mL) was collected in a heparin coated tube and centrifuged at 5000 rpm to separate plasma from blood cells (Hettich universal 32, Andreas Hettich GmbH & Co. KG, Tuttlingen, Germany). Solid phase extraction (SPE) cartridges (tC2, Waters, Ettenleur, The Netherlands) were preconditioned by washing with 6 mL MeOH and 2 × 6 mL H2O. Plasma (1 mL) was mixed with 6.0 M HCl (50 µL) and loaded on the SPE cartridge (> 99% recovery). The polar metabolite fraction was obtained by eluting the SPE cartridge with H2O (3 mL), the non-polar fraction by subsequent elution with MeOH (2 mL) and H2O (1 mL). Fractions were counted for radioactivity (Wallac 1210 Compugamma, PerkinElmer, Waltham, MA, USA). The percentage of intact tracer in the non-polar fraction was determined by online HPLC analysis on a Dionex (Sunnyvale, CA, USA) UltiMate 3000 HPLC equipment with Chromeleon software (version 6.8) equipped with a Gemini C18 column (5 μm, 10 × 250 mm, Phenomenex, Torrance, CA, USA) with a mixture of MeCN (A) and 0.1% TFA in water (B) as eluent according to the following scheme 0 min: 90% B; 12 min 15% B; 8 min 90% B at 3.5 mL.min^−1 [^11C]LR111 Rt = 10.7 min and [^18F]EW-7197 Rt = 9.2 min. Results were expressed as percentage of intact tracer, polar metabolites and non-polar metabolites ± SEM (n = 4 for each time point).
# ALK5 [4] = target: T1, ALK5; experiment: Dynamic PET imaging of lung uptake in control, MCT- and SuHx-exposed rats; format: in vivo; details: for Difference in lung uptake between control group and diseased animals after 15 min: after 15 min p.i.
# Experimental: Dynamic PET imaging was performed with NanoPET/CT and nanoPET/MR 1 T scanners (Mediso Ltd., Hungary, Budapest) with identical PET components. All injections were performed via a tail vein catheter. […] Rats were positioned on the scanner bed and the respiratory rate was monitored for the duration of the experiment, adjusting anaesthesia when required. Animals first underwent a computed tomography (CT) or magnetic resonance imaging (MRI) scan to keep the isoflurane exposure as low as possible (see Fig. 2 for the set-up of the experiment). […] Dynamic PET scans, starting at the time of tracer administration, were acquired for 60 min. […] At day 2, all animals received SB431542 30 min prior the injection of [^11C]LR111. In addition, the control group received a cyclosporine A (Sigma-Aldrich, Zwijndrecht, The Netherlands) injection at day 3, 30 min prior to the injection of [^11C]LR111. Finally, at day 4, SB431542 and cyclosporine A injections were administered 30 min prior to the injection of [^11C]LR111. After these scanning experiments, the animals were sacrificed by cervical dislocation. Lung tissues were removed from MCT (n = 3), SuHx (n = 3) and healthy rats (n = 3). They were filled with 50% Tissue-Tek (VWR, Amsterdam, The Netherlands) and 50% physiological salt and snap frozen in liquid nitrogen. Positron emission scans were acquired in list mode and rebinned into the following frame sequence: 4 × 5, 4 × 10, 2 × 30, 3 × 60, 2 × 300, 1 × 600, 1 × 900 and 1 × 1200 s. The scans were reconstructed with a spatial resolution of 0.4 mm and were corrected for attenuation and scatter. The scans of the first 30 s were combined to correct for injection speed differences. Images were analysed using the freely available software AMIDE, version 1.0.4 (http://amide.sourceforge.net/). […] Uptake was expressed as standard uptake values (SUV), which was calculated according to the following equation: SUV=%uptake of the total tracer dose/volume of the region of interest/bodyweight Error bars indicate standard deviation. Statistical analysis was performed using Graphpad PRISM (v 5.02, Graphpad Software Inc). Lung uptake in the control group was compared with uptake in the diseased animals with a one-tailed unpaired t-test. Differences were considered significant if p < 0.05. The representative PET images were generated using VivoQuant2020.
# P-gp = experiment: PET imaging after cyclosporine A (efflux pump inhibitor) in healthy rats; format: in vivo, rat; details: increased lung uptake in healthy rats after cyclosporine A
# Experimental: Dynamic PET imaging was performed with NanoPET/CT and nanoPET/MR 1 T scanners (Mediso Ltd., Hungary, Budapest) with identical PET components. All injections were performed via a tail vein catheter. […] Rats were positioned on the scanner bed and the respiratory rate was monitored for the duration of the experiment, adjusting anaesthesia when required. Animals first underwent a computed tomography (CT) or magnetic resonance imaging (MRI) scan to keep the isoflurane exposure as low as possible (see Fig. 2 for the set-up of the experiment). All tracer injections were performed via a tail vein catheter using 4 and 2% isoflurane in 1 L min^−1 oxygen for induction and maintenance, respectively (see Table 1 for animal weights and injected doses). Dynamic PET scans, starting at the time of tracer administration, were acquired for 60 min. Immediately after the [^11C]LR111 scan, a bolus injection of [^18F]EW-7197 was administered, in order to minimize the time that rats were exposed to isoflurane, and another dynamic PET scan was acquired. […] Images were analysed using the freely available software AMIDE, version 1.0.4 (http://amide.sourceforge.net/). […] Uptake was expressed as standard uptake values (SUV), which was calculated according to the following equation: SUV=%uptake of the total tracer dose/volume of the region of interest/bodyweight
# [5] = PET, 15 min p.i., MCT rats, baseline scan
# [6] = PET, 15 min p.i., SuHx rats, baseline scan
# [7] = PET, 15 min p.i., healthy Wistar rats
# [8] = PET, 15 min p.i., healthy Wistar rats, SB431542 20 mg kg^−1 30 min prior
# [9] = PET, 15 min p.i., healthy Wistar rats, baseline
# [10] = PET, 15 min p.i., healthy Wistar rats, cyclosporine A 50 mg kg^−1 30 min prior
# [11] = PET, 15 min p.i., healthy Wistar rats, cyclosporine A + SB431542
Structure (SMILES),Binding to MCT-exposed lungs compared with control lungs (ALK5 [1]),Binding to SuHx-exposed lungs compared with control lungs (ALK5 [1]),Retention in healthy lung tissue [2],Intact tracer ([3]; 15 min p.i.),In vivo metabolic stability in rats [3],"Lung uptake in MCT-exposed rats compared with control group (ALK5 [4]; PET, 15 min p.i.)","Lung uptake in SuHx rats compared with control group (ALK5 [4]; PET, 15 min p.i.)",Uptake in the lungs (ALK5 [4]; [5]),Uptake in the lungs (ALK5 [4]; [6]),Uptake in the lungs (ALK5 [4]; [8]),Uptake in the lungs (ALK5 [4]; [9]),Uptake in the lungs (ALK5 [4]; [10]),Uptake in the lungs (ALK5 [4]; [11]),Difference in lung uptake between control group and diseased animals after 15 min (ALK5 [4]; PET),further results
"Cc1cccc(-c2[nH]c(CNc3ccccc3[18F])nc2-c2ccc3ncnn3c2)n1 [[^18F]EW-7197, N-((4-(1,2,4 triazolo 1,5-apyridin-6-yl)-5-(6-methylpyridin-2-yl)-1H-imidazol-2-yl)methyl)-2-fluoroaniline]",1.2 times,1.2 times,0.56 ± 0.07 % ID·g^−1,55 ± 16%,moderately stable,1.4 fold,2.5 fold,0.81 ± 0.15 SUV,1.47 ± 0.47 SUV,0.44 ± 0.12 SUV,0.59 ± 0.10 SUV,0.90 ± 0.18 SUV,0.72 ± 0.21 SUV,no difference,"Retention in bone [2]: 0.21 ± 0.02 % ID·g^−1; Intact tracer ([3]; 45 min p.i.): 23 ± 5%; Blocking of lung uptake with SB431542 in PET scans (ALK5 [4]; PET images, SB431542 20 mg kg^−1): could be blocked; Lung accumulation with cyclosporine A and SB431542 relative to baseline (ALK5 [4]; [7]): 1.2 fold; Lung accumulation with cyclosporine A relative to baseline (ALK5 [4]; [7]): 1.5 fold; Substrate for P-gp (P-gp): substrate for P-gp"
Cc1csc(-c2nc(CN[11C](=O)OCC(C)C)[nH]c2-c2ccc3ncsc3c2)n1 [[^11C]LR111],1.5 times,3.2 times,0.45 ± 0.03 % ID·g^−1,74 ± 5%,moderately stable,1.1 fold,similar,1.10 ± 0.25 SUV,1.04 ± 0.13 SUV,0.85 ± 0.12 SUV,1.03 ± 0.07 SUV,0.85 ± 0.19 SUV,1.00 ± 0.32 SUV,no difference,Tracer binding when SB431542 was added (ALK5 [1]; SB431542 94 µM): could be blocked; Intact tracer ([3]; 60 min p.i.): 46 ± 2%
